The target in assay [1] is T1, Mitogen-activated protein kinase 14 (Homo sapiens, UniProt Q16539). Description: Binding affinity for Mitogen-activated protein kinase p38 alpha.
The target of assay [2] is T1, Mitogen-activated protein kinase 14.
Description: Rate of dissociation from Mitogen-activated protein kinase p38 alpha
The target is the same in assay [3]. The source holds these as a separate data set.
Description: Rate of association to Mitogen-activated protein kinase p38 alpha

T1 sequence (Q16539 whole entry): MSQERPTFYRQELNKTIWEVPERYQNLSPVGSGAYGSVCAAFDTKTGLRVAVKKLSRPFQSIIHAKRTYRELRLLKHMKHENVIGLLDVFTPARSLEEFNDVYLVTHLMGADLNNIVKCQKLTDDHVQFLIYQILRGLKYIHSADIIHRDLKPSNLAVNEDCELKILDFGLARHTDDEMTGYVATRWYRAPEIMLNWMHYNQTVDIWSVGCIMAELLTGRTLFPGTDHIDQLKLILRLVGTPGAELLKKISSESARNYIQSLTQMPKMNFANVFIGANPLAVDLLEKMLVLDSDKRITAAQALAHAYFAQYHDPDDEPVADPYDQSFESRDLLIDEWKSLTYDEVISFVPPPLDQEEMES

On to `CN(C)Cc1cccc(-n2nc(C(C)(C)C)cc2NC(=O)Nc2ccc(OCCN3CCOCC3)c3ccccc23)c1`, for which, in assay [1], the Kd (usually the constant that tells how readily two partners part at equilibrium) came to 16 nM.
On the same count and under the same terms, next, `Cc1ccc(-n2nc(C(C)(C)C)cc2NC(=O)Nc2ccc(OCCN3CCOCC3)c3ccccc23)cc1CN(C)C`: 4.8 nM.
Turning to `Cn1nc(C(C)(C)C)cc1NC(=O)Nc1ccc(OCCN2CCOCC2)c2ccccc12`, binding in assay [1] was characterised by a dissociation constant (Kd) of 23 nM.
As to `Cc1ccc(-n2nc(C(C)(C)C)cc2NC(=O)Nc2ccc(OCCN3CCOCC3)c3ccccc23)cc1C(=O)O`, the Kd in assay [1] amounted to 2.5 nM. This compound came in with a k off in assay [2] of 6.2e-05 s⁻¹. The compound also gave a k on in assay [3] of 25200 M⁻¹ s⁻¹.
In turn, `CC(C)(C)c1cc(NC(=O)Nc2ccc(OCCN3CCOCC3)c3ccccc23)n(-c2ccccc2)n1` had a Kd in assay [1] of 0.097 nM.
Same read-out and setting: next, `CC(C)c1cc(NC(=O)Nc2ccc(OCCN3CCOCC3)c3ccccc23)n(-c2ccccc2)n1`: 5.9 nM; `Cc1ccc(-n2nc(C(C)(C)CO)cc2NC(=O)Nc2ccc(OCCN3CCOCC3)c3ccccc23)cc1`: 16 nM; `Cc1ccc(-n2nc(C(C)(C)C)cc2NC(=O)Nc2ccc(CCCN3CCOCC3)c3ccccc23)cc1`: 1.2 nM.
On the same count and under the same terms, next, `Cc1ccc(-n2nc(C(C)(C)C)cc2NC(=O)Nc2cccc3ccccc23)cc1`: 1.1 nM; `Cc1ccc(-n2nc(C(C)(C)C)cc2NC(=O)Nc2ccc(OCCN3CCOCC3)c3ccccc23)cn1`: 1.1 nM.
In the case of `Cc1ccc(-n2nc(C(C)(C)C)cc2NC(=O)Nc2ccccc2)cc1`, binding in assay [1] was characterised by a dissociation constant (Kd) of 22 nM.
On the same count and under the same terms, next, `COc1cc(NC(=O)Nc2cc(C(C)(C)C)nn2-c2ccc(C)cc2)c2ccccc2c1OCCN1CCOCC1`: 14 nM; `O=C(Nc1ccc(OCCN2CCOCC2)c2ccccc12)Nc1ccnn1-c1ccccc1`: 2000 nM.
For `Cc1ccc(-n2nc(C(C)(C)C)cc2NC(=O)Nc2ccc(OCCN3CCOCC3)cc2)cc1`, in assay [2], the k off was 0.0039 s⁻¹. In assay [3], the k on is 13000 M⁻¹ s⁻¹.
The compound `COc1cc(NC(=O)Nc2cc(C(C)(C)C)nn2-c2ccc(C)cc2)c2ccccc2c1` returned a Kd in assay [1] of 9.4 nM.
